Measured values reported in paper PMC6181586 (Chemical communications (Cambridge, England), 2018).

Biological target: CatB (Homo sapiens, UniProt P07858)
Assay: SDS-PAGE of adduct formation with CatB
Type: biochemical
Conditions: co-incubation with conjugates and CatB, SDS-PAGE autoradiography

## CCCNC(=O)[C@H]1O[C@@H]1C(=O)N[C@H](C(=O)N1CCC[C@H]1C(=O)O)[C@@H](C)CC [CA-074]
  Effect of co-incubation on CatB adducts of the conjugates: eliminated observable CatB adducts
